According to PMC9230623, “Design, Synthesis, In Vitro Biological Activity Evaluation and Stabilized Nanostructured Lipid Carrier Formulation of Newly Synthesized Schiff Bases-Based TMP Moieties” (Pharmaceuticals, 2022):

What was measured:
β-tubulin = assay: Tubulin polymerization inhibitory activity, ELISA assay for β-tubulin; assay type: cell-based, human; conditions: at IC50 (1.27 μM), compared with no treatment control
Protocol: In addition, compound 4h was subjected to in vitro tubulin polymerization inhibitory activity assay using ELISA assay for β-tubulin.
(§1) Compound 4h was evaluated for their Tubulin inhibitory activity according to manufacturer’s instructions.

[1] = system: MDA-MB-231 breast cancer cell line; assay: Cytotoxic assay against MDA-MB-231 breast cancer cell line; assay type: cell-based; conditions: Homo sapiens, MDA-MB-231; mean of three independent replicates ± SE; read-out: IC50 Value (μM) MDA-MB-231
Protocol: The newly prepared Schiff bases 2–5g were screened for their in vitro cytotoxic activity against the MDA-MB-231 breast cancer cell line taking CA-4 as a reference drug. […] In addition, further structure extension to give N-aryl hydrazinyl molecules 4a–5g produced compounds with considerable cytotoxic activity, which may give an indication that the aryl ring is important for cytotoxic activity. […]
Cytotoxic activity of the prepared schiff bases against MDA-MB-231 breast cell Line was determined according previously reported methods. (See Supplementary Materials—Appendix SB).

MDA-MB-231 cells [2] = assay: Annexin V FITC/PI staining apoptosis assay; assay type: cell-based, human
Protocol: A double staining examination of annexin V FITC/propidium iodide (PI) was used to evaluate compound 4h’s influence on apoptosis and estimate the percentage of the total, early, and late apoptosis in MDA-MB-231 cells. […] Furthermore, the proportion of early and late apoptotic cells rose by 23.12- and 63.67-fold, respectively, as compared to the untreated control cells.
(§2) See Supplementary Materials—Appendix SB.

[3] = system: normal breast cell line MCF-10A; assay: Cytotoxic assay against normal breast cell line MCF-10A; assay type: cell-based; conditions: Homo sapiens, mean of three independent replicates ± SE, read-out: IC50 Value (μM) MCF-10A
tubulin [4] = assay: Tubulin polymerization inhibition by immunofluorescence analysis (confocal microscope); assay type: cell-based, human; conditions: at its IC50 concentration, MDA-MB-231, compared with untreated cells
Protocol: Several investigations have shown that TMP-containing compounds such as Col and CA-4 interact with tubulin at the colchicine binding site, inhibiting microtubule assembly. The effects of representative Schiff bases on the inhibition of tubulin assembly were evaluated. […] Tubulin polymerization inhibitory activity against the MDA-MB-231 cell line was investigated by immunofluorescence analysis using a confocal microscope.
as §1

MDA-MB-231 cells [5] = assay: Cell cycle analysis (FACS, DNA flow cytometry); assay type: cell-based, human
Excerpt: For the purpose of studying the influence of these hydrazides on the cell cycle progression of MDA-MB-231 human malignant cell lines. A FACS analysis was used to determine the DNA proportion of cell nuclei.
as §2

[6] = system: mitochondrial membrane potential of MDA-MB-231 cells; assay: Mitochondrial membrane potential by flow cytometry; assay type: cell-based, human
Protocol: Most of the known anticancer molecules induce apoptotic cascade via activation of the intrinsic pathway via release of cytochrome-c after depolarization of mitochondrial membrane. The potential status of the mitochondrial membrane is determined by the electrochemical gradient (Δψ).
as §2

[7] = system: MCF-7 breast cancer cell line; conditions: MCF-7 ref 26; cited from earlier work
tubulin [8] = system: tubulin; set-up: method as in PMID 32325332; conditions: at its IC50 dose level ref 22; cited from earlier work
[9] = system: four human cancer cell lines; set-up: method as in PMID 27149641; conditions: four human cancer cell lines ref 21; read-out: IC50 antiproliferative activity; cited from earlier work
[10] = compared to untreated control cells

## COc1cc(/C=C(\NC(=O)c2cc(OC)c(OC)c(OC)c2)C(=O)N/N=C/c2cc(Br)c(O)c(Br)c2)cc(OC)c1OC [Compound 4h, N-((Z)-3-((E)-2-(3,5-Dibromo-4-hydroxybenzylidene)hydrazinyl)-3-oxo-1-(3,4,5-trimethoxyphenyl)prop-1-en-2-yl)-3,4,5-trimethoxybenzamide]
β-tubulin
  percent inhibition of tubulin polymerization: 78.14%
[1]
  IC50: 1.27 ± 0.18 µM
MDA-MB-231 cells [2]; 24 h, no treatment control 1.63%
  overall apoptosis: 31.27%
MDA-MB-231 cells [2]; [10]
  rise of early apoptotic cells: 23.12 fold
  rise of late apoptotic cells: 63.67 fold
[3]
  IC50: 30.8 ± 2.32 µM
Tubulin [4]
  tubulin polymerization inhibition activity (immunofluorescence): good tubulin polymerization inhibition activity
MDA-MB-231 cells [5]; IC50 concentration, 24 h
  %Pre-G1: 31.27%
MDA-MB-231 cells [5]; IC50 concentration, 24 h, untreated control 8.22%
  %DIP G2/M: 38.65%
MDA-MB-231 cells [5]; versus control MDA-MB-231 cells
  cell cycle arrest at G2/M phase relative to control cells: fivefold
MDA-MB-231 cells [5]; versus negative control cells
  increase in percentage of pre-G1 phase relative to negative control: ~19 fold
[6]; IC50 concentration, 24 h, in comparison with untreated cells
  reduction in the level of MMPψ: 65.23%
[6]; compared to negative control cells
  decrease in the level of MMP: 3 fold

## COc1cc(C(=O)N/N=C/c2cc3ccccc3[nH]2)cc(OC)c1OC [VII]
[7]
  IC50: 870 nM

## COc1cc(C(=O)NNC(=O)c2ccc(NC(=O)CCl)cc2)cc(OC)c1OC [VI]
Tubulin [8]
  in vitro tubulin polymerization inhibition activity: 83.1%

## COc1ccc2c(c1)NC(/C=C(\C)C(=O)c1cc(OC)c(OC)c(OC)c1)C2 (stereo not shown) [V]
[9]
  IC50: 3 to 9 nM
